Values quoted from earlier work in patent US20230355898A1, “NEBULIZER AND NEBULIZED ANTI-VIRALS” (priority 2020, published 2023).
Where a name gives a salt, the structure may show the parent alone. Read-outs that look alike come from different tables or passages of the source.

How the values were obtained:
[1] = system: SARS-CoV-2 pseudoparticulates; details: drug at human blood maximum concentrations in fluid and airway channels; Si, 2020
SARS-CoV-2 [2] = details: for SARS-CoV-2 viral load measured by RT-qPCR of the viral N transcript: COVID-19 hamster model, Intraperitoneal (IP) administration; for prophylactic efficacy in reducing SARS-CoV-2 infection: hamsters, 50 mg/kg SC QD, virus intranasal or by association with nasally infected animals; for reduction in viral load or change in disease progression: Rosenke
[3] = system: SARS-CoV-2 pseudoparticulates (pp); details: Huh-7, SARS-CoV-2pp, concurrent treatment, Si, 2020
SARS-CoV-2 [4] = details: Vero 6, SARS-Cov-2, pretreatment; Si, 2020; read-out: Inhibition of infection IC50
SARS-CoV-2 [5] = details: read-out: Viral Replication EC50 @ 48 hr, Vero 6, Concurrent, Wang, 2020
[6] = free base; PubChem
[7] = not given; remark: listed apart in the source
SARS-CoV-2 [8] = details: Rhesus Macaque, Rosenke, 2020
[9] = rat, in vivo
[10] = four-route infection on day 0, 6 mg/kg PO 12 18, 36, 60, 84 and 108 hours post-infection (therapeutic)
[11] = four-route infection on day 0, 6 mg/kg PO on days −9, −2, and 5 (prophylactic)

Question: For `CCN(CC)Cc1cc(Nc2ccnc3cc(Cl)ccc23)ccc1O.Cl.Cl` [ADQ hydrochloride], which “Inhibition of SARS-CoV-2pp entry into LAC epithelial cells (qPCR of viral mRNA)” value (from here on “Inhibition … (qPCR of viral mRNA)”) [1] is on record?
Answer: The value was “inhibited”.

Question: And the “SARS-CoV-2 viral load measured by RT-qPCR of the viral N transcript” value (SARS-CoV-2 [2]; Si, 2020)?
Answer: The value was “able to reduce”.

Question: And the “prophylactic efficacy in reducing SARS-CoV-2 infection” value (SARS-CoV-2 [2])?
Answer: Its value is “effective”.

Question: What does the source list for `CCN(CC)Cc1cc(Nc2ccnc3cc(Cl)ccc23)ccc1O` [ADQ, amodiaquine]?
Answer: Inhibition of viral entry: % entry @ 1 μM [3]: 10% entry @1 μM; Inhibition of viral entry: % entry @ 5 μM [3]: 30% entry @ 5 μM;; T1/2 (human, in vivo, iv): 0.083 days; V2 (in vivo, iv): 39 L; IC50 (SARS-CoV-2 [4]): 10.3 µM; reduction in viral load on day 4 (SARS-CoV-2 [2]; Hamster, exposure of healthy animals to nasally infected animals on day 2, 50 mg/kg SC day 1 and days 2, 3, 4, Si, 2020): 90% reduction in; reduction in viral load on day 4 (SARS-CoV-2 [2]; Hamster, nasal infection on day 2, 50 mg/kg SC 1 day before infection and days 2, 3, 4, Si, 2020): 70% reduction in; prophylactic efficacy in reducing SARS-CoV-2 infection (SARS-CoV-2 [2]): exhibit prophylactic efficacy

Question: With `CCN(CC)CCCC(C)Nc1ccnc2cc(Cl)ccc12.O=P(O)(O)O.O=P(O)(O)O` (stereo not drawn) [CQ phosphate] as the compound, how does the “Inhibition … (qPCR of viral mRNA)” value [1] read?
Answer: The value was “lack of efficacy”.

Question: What does the source list for `CCN(CC)CCCC(C)Nc1ccnc2cc(Cl)ccc12` (stereo not drawn) [CQ, chloroquine]?
Answer: Inhibition of viral entry: % entry @ 1 μM [3]: 10% entry @ 1 μM; Inhibition of viral entry: % entry @ 5 μM [3]: 50% entry @ 5 μM;; EC50 (SARS-CoV-2 [5]): 1.13 µM; T1/2 (IV in humans): 23.7 days; V2 (IV in humans): 7,973 L; Inhibition of SARS-CoV-2pp entry into LAC epithelial cells (qPCR of viral mRNA) [1]: lack of efficacy

Question: For `CCNCc1cc(Nc2ccnc3cc(Cl)ccc23)ccc1O` [DEAQ, desethylamodiaquine], which IC50 (SARS-CoV-2 [4]) is on record?
Answer: Its IC50 is 8.5 µM.

Question: What about the “Log P” value [6] of the same compound?
Answer: The value was 2.3.

Question: Which “Inhibition … (qPCR of viral mRNA)” value [1] does the source give for `CCN(CCO)CCCC(C)Nc1ccnc2cc(Cl)ccc12` (stereo not drawn) [HCQ sulfate, hydroxychloroquine sulfate] here?
Answer: The value was “lack of efficacy”.

Question: What about the “clinical endpoints for asthma (Phase II)” value ([7]; nebulized) of the same compound?
Answer: The value was “did not meet its clinical endpoints”.

Question: And the “tolerability of pulmonary doses” value ([7]; nebulized hypertonic 100 mg/mL, up to 20 mg QD)?
Answer: Its value is “well tolerated with minimal side effects”.

Question: And the “SARS-CoV-2 viral load measured by RT-qPCR of the viral N transcript” value (SARS-CoV-2 [2]; Si, 2020)?
Answer: Its value is “ineffective”.

Question: And the “reduction in viral load on day 5” value (SARS-CoV-2 [2]; Hamster, exposure to nasally infected animals on day 2, 600 mg/kg IP day 1 and 50 mg/kg IP days 2, 3, 4, 5, Kapstein, 2020)?
Answer: Its value is “ineffective”.

Question: What about the “reduction in viral load or change in disease progression” value (SARS-CoV-2 [2]; Hamster, nasal infection on day 1, 50 mg/kg IP 1 hr after infection and days 2, 3 (therapeutic), 2020, 50 mg/kg) of the same compound?
Answer: The value was “ineffective”.

Question: What about the “reduction in viral load or change in disease progression” value (SARS-CoV-2 [2]; Hamster, nasal infection on day 2, 50 mg/kg IP 1 day before infection and days 2, 3, 4 (prophylactic), 2020, 50 mg/kg) of the same compound?
Answer: Its value is “ineffective”.

Question: What about the “reduction in viral load on day 4” value (SARS-CoV-2 [2]; Hamster, nasal infection on day 2, 50 mg/kg IP 1 day before infection and days 2, 3, 4, Kapstein, 2020, 50 mg/kg) of the same compound?
Answer: Its value is “ineffective”.

Question: What about the “effect upon viral loads at days 3, 5, or 7, or disease pathology through post-mortem on day 7” value (SARS-CoV-2 [8]; [10]) of the same compound?
Answer: Its value is “ineffective”.

Question: And the “effect upon viral loads at days 3, 5, or 7, or disease pathology through post-mortem on day 7” value (SARS-CoV-2 [8]; [11])?
Answer: Its value is “ineffective”.

Question: And the “lung drug concentrations, IT versus IV solution” value [9]?
Answer: The value was “higher lung drug concentrations”.

Question: For `CCN(CCO)CCCC(C)Nc1ccnc2cc(Cl)ccc12` (stereo not drawn) [HCQ, hydroxychloroquine], which “Inhibition of viral entry: % entry @ 1 μM” value [3] is on record?
Answer: The value was 30% entry @ 1 μM.

Question: And the “Inhibition of viral entry: % entry @ 5 μM” value [3]?
Answer: The value was 50% entry @ 5 μM;.

Question: What about the T1/2 (human, in vivo, iv) of the same compound?
Answer: Its T1/2 is 26.2 days.

Question: What about the V2 (in vivo, iv) of the same compound?
Answer: The V2 was 26,711 L.

Question: And the “Inhibition … (qPCR of viral mRNA)” value [1]?
Answer: The value was “repeatedly failed”.

Question: What about the “Log P” value [6] of the same compound?
Answer: Its value is 3.9.

Question: What about the “effect upon viral loads at days 3, 5, or 7, or disease pathology through post-mortem on day 7” value (SARS-CoV-2 [8]; [10]) of the same compound?
Answer: The value was “No effect upon viral”.

Question: And the “effect upon viral loads at days 3, 5, or 7, or disease pathology through post-mortem on day 7” value (SARS-CoV-2 [8]; [11])?
Answer: The value was “No effect upon viral”.
